The record followed here is patent US8227625B2, “4,5,6,7-tetrahydrobenzo[b]thiophene derivatives and their use as sigma receptor ligands” (Laboratorios del Dr. Esteve, S.A., priority 2006, dated 2012).

Take `O=C(O)C(=O)O.c1ccc2c(c1)COC21CCN(CCC2CCCc3sccc32)CC1` (stereo not shown): the melting point (commonly the temperature, or range, at which the solid turns liquid) was in the range of 172 to 176 °C.
With `O=C(O)C(=O)O.OC1(c2ccc(Cl)cc2)CCN(CCC2CCCc3sccc32)CC1` (stereo not shown), the melting point lay within 184 to 185 °C.
The molecule `O=C(O)C(=O)O.O=C1OC2(CCN(CCC3CCCc4sccc43)CC2)c2ccccc21` (stereo not shown) had a melting point of 186 to 189 °C.
The molecule `C1=CC2(CCN(CCC3CCCc4sccc43)CC2)c2ccccc21.O=C(O)C(=O)O` (stereo not shown) registered a melting point of 198 to 199 °C.
In turn, `CN(C/C=C1\CCCc2sccc21)Cc1ccccc1.O=C(O)C(=O)O` [Example 4, (E)-N-benzyl-2-(6,7-dihydrobenzo[b]thien-4(5H)-ylidene)-N-methylethanamine oxalate] registered a melting point of 139 to 141 °C.
For the molecule `C(/CN1CCC(c2ccccc2)CC1)=C1/CCCc2sccc21.O=C(O)C(=O)O` [Example 6, (E)-1-(2-(6,7-dihydrobenzo[b]thien-4(5H)-ylidene)ethyl)-4-phenylpiperidine oxalate], the melting point was 160 to 163 °C.
With `CN(C/C=C1\CCCc2sccc21)CCc1ccccc1.O=C(O)C(=O)O` [Example 8, (E)-N-(2-(6,7-dihydrobenzo[b]thien-4(5H)-ylidene)ethyl)-N-methyl-2-phenylethanamine oxalate], the melting point fell in the range of 129 to 130 °C.
`C(/CN1CCCCC1)=C1/CCCc2sccc21.O=C(O)C(=O)O` [Example 10, (E)-1-(2-(6,7-dihydrobenzo[b]thien-4(5H)-ylidene)ethyl)piperidine oxalate] returned a melting point of 148 to 150 °C.
Then `CC1CCN(C/C=C2\CCCc3sccc32)CC1.O=C(O)C(=O)O` [Example 12, (E)-1-(2-(6,7-dihydrobenzo[b]thien-4(5H)-ylidene)ethyl)-4-methylpiperidine oxalate], with 139 to 141 °C.
The molecule `C(/CN1CCOCC1)=C1/CCCc2sccc21.O=C(O)C(=O)O` [Example 14, (E)-4-(2-(6,7-dihydrobenzo[b]thien-4(5H)-ylidene)ethyl)morpholine oxalate] gave a melting point of 171 to 174 °C.
In turn, `O=C(O)C(=O)O.c1ccc2c(c1)CN(CCC1CCCc3sccc31)C2` (stereo not shown) [Example 22, 2-(2-(4,5,6,7-tetrahydrobenzo[b]thien-4-yl)ethyl)isoindoline oxalate] displayed a melting point of 203 to 205 °C.
For `CN(CCC1CCCc2sccc21)Cc1ccccc1.O=C(O)C(=O)O` (stereo not shown) [Example 24, N-benzyl-N-methyl-2-(4,5,6,7-tetrahydrobenzo[b]thien-4-yl)ethanamine oxalate], the melting point was 168 to 171 °C.
On to `FC(F)(F)c1ccc(C2CCN(CCC3CCCc4sccc43)CC2)cc1.O=C(O)C(=O)O` (stereo not shown) [Example 26, 1-(2-(4,5,6,7-tetrahydrobenzo[b]thiophen-4-yl)ethyl)-4-(4-(trifluoromethyl)phenyl)piperidine oxalate], for which the melting point lay in the range of 180 to 182 °C.
In turn, `Cc1ccccc1C1CCN(CCC2CCCc3sccc32)CC1.O=C(O)C(=O)O` (stereo not shown) [Example 28, 1-(2-(4,5,6,7-tetrahydrobenzo[b]thiophen-4-yl)ethyl)-4-o-tolylpiperidine oxalate] gave a melting point of 188 to 190 °C.
`Fc1cccc(C2CCN(CCC3CCCc4sccc43)CC2)c1.O=C(O)C(=O)O` (stereo not shown) [Example 30, 4-(3-fluorophenyl)-1-(2-(4,5,6,7-tetrahydrobenzo[b]thiophen-4-yl)ethyl)piperidine oxalate] registered a melting point of 203 to 204 °C.
For the molecule `O=C(O)C(=O)O.c1ccc2c(C3CCN(CCC4CCCc5sccc54)CC3)cccc2c1` (stereo not shown) [Example 32, 4-(naphthalen-1-yl)-1-(2-(4,5,6,7-tetrahydrobenzo[b]thiophen-4-yl)ethyl)piperidine oxalate], the melting point lay in the range of 197 to 198 °C.
Molecule `Clc1ccc(C2CCN(CCC3CCCc4sccc43)CC2)cc1.O=C(O)C(=O)O` (stereo not shown) [Example 34, 4-(4-chlorophenyl)-1-(2-(4,5,6,7-tetrahydrobenzo[b]thiophen-4-yl)ethyl)piperidine oxalate] displayed a melting point of 201 to 202 °C.
In turn, `COc1ccccc1C1CCN(CCC2CCCc3sccc32)CC1.O=C(O)C(=O)O` (stereo not shown) [Example 36, 4-(2-methoxyphenyl)-1-(2-(4,5,6,7-tetrahydrobenzo[b]thiophen-4-yl)ethyl)piperidine oxalate] gave a melting point of 160 to 162 °C.
On to `Clc1cccc(C2CCN(CCC3CCCc4sccc43)CC2)c1.O=C(O)C(=O)O` (stereo not shown) [Example 42, 4-(3-chlorophenyl)-1-(2-(4,5,6,7-tetrahydrobenzo[b]thiophen-4-yl)ethyl)piperidine oxalate], for which the melting point was in the range of 185 to 186 °C.
In turn, `COc1cccc(C2CCN(CCC3CCCc4sccc43)CC2)c1.O=C(O)C(=O)O` (stereo not shown) [Example 44, 4-(3-methoxyphenyl)-1-(2-(4,5,6,7-tetrahydrobenzo[b]thiophen-4-yl)ethyl)piperidine oxalate] returned a melting point of 157 to 159 °C.
`Fc1ccc(C2CCN(CCC3CCCc4sccc43)CC2)cc1.O=C(O)C(=O)O` (stereo not shown) [Example 46, 4-(4-fluorophenyl)-1-(2-(4,5,6,7-tetrahydrobenzo[b]thiophen-4-yl)ethyl)piperidine oxalate]: the melting point fell in the range of 179 to 181 °C.
With `FC(F)(F)c1cc(C2CCN(CCC3CCCc4sccc43)CC2)cc(C(F)(F)F)c1.O=C(O)C(=O)O` (stereo not shown) [Example 48, 4-(3,5-bis(trifluoromethyl)phenyl)-1-(2-(4,5,6,7-tetrahydrobenzo[b]thiophen-4-yl)ethyl)piperidine oxalate], the melting point is 205 to 206 °C.
The molecule `O=C(O)C(=O)O.c1ccc2cc(C3CCN(CCC4CCCc5sccc54)CC3)ccc2c1` (stereo not shown) [Example 50, 4-(naphthalen-2-yl)-1-(2-(4,5,6,7-tetrahydrobenzo[b]thiophen-4-yl)ethyl)piperidine oxalate] returned a melting point of 203 to 205 °C.
Then `O=C(O)C(=O)O.c1ccc2oc(C3CCN(CCC4CCCc5sccc54)CC3)cc2c1` (stereo not shown) [Example 52, 4-(benzofuran-2-yl)-1-(2-(4,5,6,7-tetrahydrobenzo[b]thiophen-4-yl)ethyl)piperidine oxalate], with 207 to 208 °C; and `Fc1ccccc1C1CCN(CCC2CCCc3sccc32)CC1.O=C(O)C(=O)O` (stereo not shown) [Example 54, 4-(2-fluorophenyl)-1-(2-(4,5,6,7-tetrahydrobenzo[b]thiophen-4-yl)ethyl)piperidine oxalate], with 208 to 209 °C; and `O=C(O)C(=O)O.c1ccc2c(C3CCN(CCC4CCCc5sccc54)CC3)csc2c1` (stereo not shown) [Example 57, 4-(benzo[b]thiophen-3-yl)-1-(2-(4,5,6,7-tetrahydrobenzo[b]thiophen-4-yl)ethyl)piperidine oxalate], with 190 to 192 °C.
Consider `O=C(O)C(=O)O.c1ccc2[nH]c(C3CCN(CCC4CCCc5sccc54)CC3)nc2c1` (stereo not shown) [Example 59, 2-(1-(2-(4,5,6,7-tetrahydrobenzo[b]thiophen-4-yl)ethyl)piperidin-4-yl)-1H-benzo[d]imidazole oxalate], for which the melting point was in the range of 223 to 225 °C.
Turning to `Cc1nc2ccccc2n1C1CCN(CCC2CCCc3sccc32)CC1.O=C(O)C(=O)O` (stereo not shown) [Example 61, 2-methyl-1-(1-(2-(4,5,6,7-tetrahydrobenzo[b]thiophen-4-yl)ethyl)piperidin-4-yl)-1H-benzo[d]imidazole oxalate], the melting point fell in the range of 155 to 157 °C.
